# Legend:
# [1] = system: IgG and IgM repertoire; assay: Antigen microarrays of serum IgG and IgM reactivities; assay type: in vivo, human
# Text: A panel of self and non-self proteins, peptides and lipids were spotted onto Epoxi slides (TeleChem, CA, USA) as described [Quintana, F. J. et al. Proc. Natl. Acad. Sci. USA 101 Suppl 2:14615-14621 (2004)]. Since several of the self-antigens included in the antigen microarrays used by the invention, are targeted by natural antibodies [Coutinho, A. et al. Curr. Opin. Immunol. 7:812-818 (1995); Quintana, F. J. and Cohen, I. R. Biomed Pharmacother 58:276-281 (2004)], the inventors could detect both the up and the down-regulation of preexisting IgG and IgM reactivities. Sera from OKT3-treated subjects were assayed at a 1/10 dilution and the IgG or IgM reactivities displaying significant changes upon treatment were identified. Briefly, antigens were spotted in replicates of 6, the microarrays were blocked for 1 h at 37° C. with 1% bovine serum albumin, and incubated for 2 hr at 37° C. with a 1:200 dilution of the test serum in blocking buffer. The arrays were then washed and incubated for 45 minutes at 37° C. with a 1:500 dilution of detection antibodies: a goat […] Cy3-conjugated antibody or a goat anti-mouse IgM Cy5-conjugated antibody (Jackson ImmunoResearch, West Grove, Pa.). The arrays were scanned with a ScanArray 4000× scanner (GSI Luminomics, Billerica, Mass., USA) and the IgM and IgG results were recorded separately.
# Raw data were normalized and analyzed using the GeneSpring software (Silicon Genetics, Redwood City, Calif.). Antigen reactivity was defined by the mean intensity of binding to the replicates of that antigen on the microarray. The data were analyzed with the Wilcoxon rank-sum test, a non-parametric test robust to outliers, using the Benjamini and Hochberg false discovery method with a p-value of 0.2 to determine significance [Stekel, D. Microarray Bioinformatics. Cambridge University Press, Cambridge (2003)]. To perform the hierarchical clustering of the antibody reactivities a pair wise average linkage algorithm based on Pearson's correlation was used as a distance measure [Stekel (2003) ibid.]
# Antigen microarrays constitute a new tool for studying the immune system in health [Quintana, F. J. and Cohen, I. R. Biomed Pharmacother 58:276-281 (2004); Merbl, Y. et al. Clin. Invest. 117:712-718 (2007); Quintana, F. J. et al. J. Autoimmun. 21:65-75 (2003)] and disease [Goldschmidt, Y. et al. Technical Report MCS03-071-018 (2003); Hueber, W. et al. Arthritis Rheum. 52:2645-2655 (2005)]. The inventors therefore used an antigen microarray containing a broad panel of antigens that included self and non self proteins, heat shock proteins, and infectious agents to investigate the effects of oral OKT3 on the immune repertoire. Both increases and decreases of immunoglobulin reactivities were measured.
# No changes occurred in the IgM repertoire.
# [2] = system: PBL cells; assay: Cytokine secretion profile of PBL cells stimulated with anti-CD3; assay type: in vivo, human
# Method: Nine subjects (3/group) were orally administered 0.2 mg, 1.0 mg or 5.0 mg of OKT3 daily for 5 days and immune parameters measured on days 5, 10 and 30 days (FIG. 12). Six subjects (3/group) received 7.5 mg of beta glucosylceramide in combination with 0.2 mg or 1.0 mg of OKT3 and 3 subjects received GC alone. All subjects were treated with 20 mg of Omeprazole (a proton pump inhibitor) during the 5 days of dosing. Dosing occurred in the morning before breakfast at the study site following a 8 hours fast.
# PBMCs were isolated from blood samples using Ficol Hypaque solution. To measure proliferation, 2×10^5 cells per well were cultured in triplicate in RPMI 1640 medium with 5% FBS (Biological Industries, Israel), 100 units/ml penicillin, 100 µg/ml streptomycin, 1% Glutamine, 1% non essential […], 1% sodium pyruvate and β-mercapto-ethanol (Biological Industries, Israel). Cells were stimulated with pre-coated antibodies (in 200 μl PBS/well):μg/well of anti OKT-3 mAb (Ortho Biotech Inc, New Jersey, USA) or 5 μg/ml soluble anti-CD3 mAb (eBioscience, CA, USA) or 2.5 μg/ml anti-CD28 mAb (R&D systems, MN, USA). One set of the above wells were added nothing while 10 μg of GC was added to a similar set for 72 h in culture at 37° C. with 5% CO2. Supernatants were collected for IL-13, IL-17 and IFN-γ. Enzyme-linked immunosorbent assays for these cytokines were performed according to the manufacturer's protocol (R&D Systems, Minneapolis, Minn.). For TGF-β, 2×10^5 cells per well were cultured in serum free media (Biotarget, Biological Industries, Israel). After collecting the supernatants, 1 µCi [^3H]thymidine (Amersham Biosciences, UK) was added to each well, and cells were harvested 18 h later. Proliferation was measured by scintillation counting.
# To investigate the effect of oral OKT3 on the cytokine secretion profile of T cells, PBL cells were stimulated with 5 μg anti-CD3 and the secretion of IFN-γ, IL-17, TGF-β and IL-13 was measured.
substance,measurement,setting,value
"OKT3: murine monoclonal anti-CD3 antibody (Orthoclone OKT-3, Ortho Biotech)",IgG reactivities affected,[1]; 0.2 mg dose,4
same,IgG reactivities affected,[1]; 1.0 mg dose,37
same,downregulated IgG reactivities,[1]; 1.0 mg dose,19
same,up regulated IgG reactivities,[1]; 1.0 mg dose,18
same,downregulated IgG reactivities,[1]; 5 mg dose,18
same,up-regulated IgG reactivities,[1]; 5 mg dose,47
same,IgG reactivities affected,[1]; 5.0 mg dose,65
same,changes in the IgM repertoire,[1]; oral OKT3,No changes
same,cytokine secretion findings,"[2]; 0.2 mg and 5.0 mg oral, not shown","similar, though not as consistent findings"
same,subjects with decrease in IFN-γ,[2]; 1.0 mg oral,three subjects
same,subjects with decrease of IL-17,[2]; 1.0 mg oral,two out of three subjects
same,subjects with increase of TGF-β,[2]; 1.0 mg oral,two out of three subjects
same,subjects with increase of IL-13,"[2]; 1.0 mg oral, not shown",three out of three subjects
